{"source": "paper PMC12884772", "about": "“Macrophagic Sclerostin Loop2‐ApoER2 Interaction Required by Sclerostin for Cardiovascular Protective Action” (Advanced Science, 2025)", "tested_on": "RAW264.7 macrophages (siLrp8)", "test": "LPS‐induced inflammatory responses in RAW264.7 macrophages (siLrp8) with or without ApoER2 (Lrp8) plasmid", "format": "cell-based, mouse", "from_the_text": "Further, we tracked the dynamic changes of inflammatory responses in mouse RAW264.7 macrophages (with Lrp8 silencing for shielding the influence of endogenous ApoER2). The RAW264.7 macrophages (siLrp8) were transfected with plasmids encoding ApoER2 (Lrp8) or vector, followed by treatment with recombinant mouse sclerostin and induction with LPS for varying durations. In detail, RAW 264.7 macrophages (siLrp8) were divided into 7 groups (n = 3 per group), including (1) Control, (2) LPS, (3) LPS + SOST, (4) Lrp8 + LPS + SOST 250 nM, (5) Lrp8 + LPS + SOST 500 nM, (6) Lrp8 + LPS + SOST 1 µM, and (7) Lrp8 + LPS. Cells in group (4–7) were transfected with plasmids encoding mouse ApoER2 (Lrp8), while cells in group (1–3) were transfected with vector. Twenty four hours later, cells in groups (3), (4), (5), and (6) were treated with recombinant mouse sclerostin at concentration of 1 µM, 250 nM, 500 nM, and 1 µM for 3 h, respectively, while cells in groups (1), (2), and (7) were treated with vehicle.^[ [35] ^] Then, cells in group (2‐7) were treated with LPS (1 µg/mL) for 18 h. All groups of cell lysates were collected for determining the mRNA expression levels of mouse TNF‐α, mouse MCP‐1, and mouse IL‐10 by RT‐PCR. Given the significant efficacy of recombinant mouse sclerostin at a concentration of 1 µM in mouse macrophages, 1 µM was selected for the subsequent studies.\nThen, the protein expression/secretion levels of pro‐inflammatory/anti‐inflammatory cytokines and chemokines, macrophage conversion, NF‐κB subcellular localization, phosphorylation, and expression were determined. In detail, RAW 264.7 cells (siLrp8) were divided into 5 groups (n = 3 per group), including (1) Control, (2) LPS, (3) LPS + SOST, (4) Lrp8 + LPS + SOST, and (5) Lrp8 + LPS. RAW 264.7 cells in groups (4) and (5) were transfected with plasmids encoding mouse ApoER2 (Lrp8), while cells in group (1‐3) were transfected with vector. Twenty four hours later, cells in groups (3) and (4) were treated with recombinant mouse sclerostin (SOST, 1 µM) for 3 h, while cells in groups (1), (2), and (5) were treated with vehicle.^[ [35] ^] Then, cells in groups (2), (3), (4), and (5) were treated with LPS (1 µg/mL) for 12 and 18 h. Cell mediums were collected for determining the protein expression/secretion levels of mouse TNF‐α, mouse MCP‐1, and mouse IL‐10 by ELISA.^[ [34] ^] The CD206^+ macrophages and CD11b^+ macrophages were determined by flow cytometry.^[ [36] ^]\nAdditionally, for the determination of NF‐κB (p65) nuclear translocation, macrophages in groups (3) and (4) were treated with recombinant mouse sclerostin (SOST, 1 µM) overnight, then macrophages in groups (2), (3), (4), and (5) were treated with LPS (1 µg/mL) for 15 and 30 min. The NF‐κB (p65) nuclear translocation in macrophages was examined under microscope, after LPS induction for 15 min.^[ [37] ^] The protein level of NF‐κB (p65) in nuclear and cytoplasm was determined by western blot assay, after LPS induction for 30 min.^[ [38] ^]\nSubsequently, for the determination of NF‐κB phosphorylation, macrophages in groups (3) and (4) were treated with recombinant mouse sclerostin (SOST, 1 µM) overnight, then macrophages in groups (2), (3), (4), and (5) were treated with LPS (1 µg/mL) for 6 h. The protein level of phospho‐NF‐κB (p‐p65) was determined by western blot assay, followed by calculating the proportion of p‐p65/total p65 in cells.^[ [39] ^] At the same time, the mRNA expression level of NF‐κB (p65) was determined by RT‐PCR.^[ [40] ^] […]\nTotal RNA was extracted from cells following the protocols of Trizol reagent (Invitrogen, 15 596 026). Reverse‐transcription was performed to obtain cDNA using HiScript III RT SuperMix kit (Vazyme, R323), and RT‐PCR was accomplished using a HiScript III RT SuperMix kit (Vazyme, R323) in a QuantStudio 7 PRO System (Applied Biosystems). The relative gene expression levels were calculated using the 2^−ΔΔCt method with GAPDH as the reference gene.^[ [40] ^] […]", "key": {"[1]": {"conditions": "1 µM, ApoER2‐overexpressing macrophages versus LPS+SOST or Lrp8+LPS, LPS 18 h, ELISA"}, "[2]": {"conditions": "1 µM, ApoER2‐overexpressing macrophages, LPS 30 min, western blot"}, "[3]": {"conditions": "1 µM, ApoER2‐overexpressing, versus LPS group, P < 0.01, LPS 18 h"}, "[4]": {"conditions": "Lrp8+LPS+SOST 250 nM, 500 nM, 1 µM versus LPS+SOST or Lrp8+LPS, LPS 18 h, RT‐PCR"}}}
{"substance": "sclerostin: recombinant human/mouse full‐length sclerostin protein", "values": [{"measurement": "NF‐κB nuclear translocation", "setting": "1 µM overnight, ApoER2‐overexpressing macrophages, LPS 15 min, immunofluorescence", "value": "significantly lower"}, {"measurement": "Medium protein level of IL‐10", "setting": "[1]", "value": "significantly higher"}, {"measurement": "Medium protein levels of TNF‐α and MCP‐1", "setting": "[1]", "value": "significantly lower"}, {"measurement": "Proportion of anti‐inflammatory phenotype (CD206^+)", "setting": "1 µM, ApoER2‐overexpressing macrophages, LPS 12 and 18 h, flow cytometry", "value": "significantly higher"}, {"measurement": "p65 protein level in the cytoplasmic fraction", "setting": "[2]", "value": "elevation"}, {"measurement": "p65 protein level in the nuclear fraction", "setting": "[2]", "value": "reduction"}, {"measurement": "mRNA expression level of NF‐κB (p65)", "setting": "1 µM, ApoER2‐overexpressing macrophages, LPS 6 h, RT‐PCR", "value": "significantly lower"}, {"measurement": "Protein level of phospho‐NF‐κB (p‐p65)", "setting": "1 µM, ApoER2‐overexpressing macrophages, LPS 6 h, western blot", "value": "significantly lower"}, {"measurement": "mRNA expression of MCP‐1", "setting": "[3]", "value": "significantly suppressed"}, {"measurement": "mRNA expression of TNF‐α", "setting": "[3]", "value": "significantly suppressed"}, {"measurement": "mRNA expression of IL‐10", "setting": "1 µM, ApoER2‐overexpressing, versus LPS group, P < 0.05, LPS 18 h", "value": "significantly promoted"}, {"measurement": "mRNA expression level of IL‐10", "setting": "[4]", "value": "dose‐dependently higher"}, {"measurement": "mRNA expression levels of TNF‐α and MCP‐1", "setting": "[4]", "value": "dose‐dependently lower"}, {"measurement": "Cytokine/chemokine mRNA and medium protein, macrophage phenotype proportions, NF‐κB nuclear translocation/phosphorylation/mRNA: LPS+SOST versus LPS", "setting": "RAW264.7 (siLrp8) without ApoER2 plasmid, sclerostin 1 µM, LPS 1 µg/mL for varying durations", "value": "no significant differences"}]}
